16 compounds from ChEMBL document CHEMBL5215003, “Evaluating the in Vitro Efficacy of Quassinoids from Eurycoma longifolia and Eurycoma harmandiana against Common Cold Human Coronavirus OC43 and SARS-CoV-2 Using In-Cell Enzyme-Linked Immunosorbent Assay” (J Nat Prod, 2022) can be followed below.

Values joined by “and” are separate entries in the source; they are usually repeats but may differ in a detail not shown here. Equal entries are not always repeated.

Data set [1] is described as follows: Antiviral activity against HCoV-OC43 infected in human HCT-8 cells assessed as inhibition of viral growth at 10 uM incubated for 4 days by ELISA analysis relative to control. The format is functional, Human coronavirus OC43. Details: scale not given: the % may be the effect or the level left. Particulars: time 4 day. (In general: In an ELISA, binding on a coated surface is turned into a signal by an enzyme label.)

The subject of another data set is HCT-8. As to the kind of experiment: Cytotoxicity against human HCT-8 cells assessed as redcution in cell viability at 10 uM incubated for 96 hrs by PrestoBlue reagent based assay relative to control. In kind it is toxicity. The note with it: hct-8, 96 h.
The nature of data set [2]: Cytotoxicity against human HCT-8 cells assessed as redcution in cell viability incubated for 96 hrs by PrestoBlue reagent based assay. The format is toxicity.
Data set [3] in a line: Cytotoxicity against African green monkey Vero cells assessed as reduction in cell viability incubated for 48 hrs by PrestoBlue reagent based assay. Particulars: chlorocebus sabaeus. The format is toxicity.
A short description of data set [4]: Cytotoxicity against human Calu-3 cells assessed as reduction in cell viability incubated for 48 hrs by PrestoBlue reagent based assay. In kind it is toxicity.
Data set [5] is described as follows: Cytotoxicity against human MRC5 cells assessed as reduction in cell viability incubated for 48 hrs by PrestoBlue reagent based assay. The format is toxicity.
A short description of data set [6]: Cytotoxicity against human HepG2 cells assessed as reduction in cell viability incubated for 48 hrs by PrestoBlue reagent based assay. In kind it is toxicity.
The nature of data set [7]: Antiviral activity against HCoV-OC43 infected in human HCT-8 cells assessed as inhibition of viral growth incubated for 4 days by ELISA analysis. The format is functional, cell-based, Human coronavirus OC43. Particulars: Betacoronavirus 1, HCT-8, 96 h.
A short description of data set [8]: Selectivity index, ratio of CC50 for cytotoxicity against human HCT-8 cells to IC50 for antiviral activity against HCoV-OC43 infected in human HCT-8 cells. Particulars: read-out: Ratio CC50/IC50. The format is toxicity, cell-based.
The test system of data set [9] is SARS-CoV-2. Kind of data set: Antiviral activity against SARS-CoV-2 infected in African green monkey Vero cells assessed as inhibition of viral growth incubated for 2 days by ELISA analysis. In kind it is functional, organism-based. The note with it: Severe acute respiratory syndrome coronavirus 2, Vero, 48 h.
Data set [10] in a line: Selectivity index, ratio of CC50 for cytotoxicity against African green monkey Vero cells to IC50 for antiviral activity against SARS-CoV-2 infected in African green monkey Vero cells. The format is toxicity, cell-based. The note with it: read-out: Ratio CC50/IC50.
In data set [11] the test system is SARS-CoV-2. As to the kind of experiment: microbe, parasite or virus in culture. The note with it: Severe acute respiratory syndrome coronavirus 2, Vero C1008. The format is functional, organism-based, Vero E6.

In general, CC50 refers to the concentration giving 50% cytotoxicity. `COc1ccc2c(c1)[nH]c1c(CCC(=O)O)nccc12`: the Activity in data set [1] is below 20%; with HCT-8, 108.23%. In addition, the half-maximal cytotoxic concentration (CC50) at 96 h in data set [2] is 79 µM. Moreover, the CC50 at 48 h in [3], in [4], in data set [5] and in data set [6] was above 100 µM in each case.
Consider `O=C(O)CCc1nccc2c1[nH]c1cc(O)ccc12`, for which the figures for the Activity (in [1]; in the data set on HCT-8) were below 20% and 108.23%, respectively. Further, the half-maximal cytotoxic concentration (CC50) at 96 h in [2] amounted to 50.1 µM. For the same compound, the CC50 at 48 h in [3], in data set [4], in data set [5] and in data set [6] was above 100 µM in each case.
For `O=c1ccc2nccc3c4ccccc4n1c23` [CANTHIN-6-ONE], the figures for the Activity (in data set [1]; in the data set with HCT-8) were below 20% and 55.55%, respectively. Besides, the CC50 at 96 h in data set [2] was 42.4 µM. For the same compound, the CC50 at 48 h is above 100 µM in data set [3], above 100 µM in data set [4], 91.2 µM in data set [5] and 85.7 µM in data set [6].
On to `O=c1ccc2nccc3c4ccc(O[C@@H]5O[C@H](CO)[C@@H](O)[C@H](O)[C@H]5O)cc4n1c23`, for which the Activity in data set [1] is listed as below 20%; in the data set with HCT-8, 53.28%. For the same compound, the 50% cytotoxic concentration (CC50) at 96 h in data set [2] turned out to be 33.8 µM. Further, the CC50 at 48 h in [3], in data set [4], in data set [5] and in data set [6] was above 100 µM each time.
The IC50 is the concentration at which inhibition is half-maximal. Consider `CCC(CC)COC(=O)[C@H](C)N[P@](=O)(OC[C@H]1O[C@@](C#N)(c2ccc3c(N)ncnn23)[C@H](O)[C@@H]1O)Oc1ccccc1` [REMDESIVIR], for which the Activity in [1] was found to be 92.45%; in the data set on HCT-8, 96.21%. Also, the IC50 in [7] is 0.32 µM; with SARS-CoV-2 [9], 22.5 µM. In addition, the half-maximal cytotoxic concentration (CC50) at 96 h in data set [2] is 53.2 µM. The selectivity ratio is 166 in data set [8] and above 4.44 in data set [10]. Besides, the CC50 at 48 h in data set [3] is above 100 µM; in [4] it was above 100 µM; in data set [5], above 100 µM; in data set [6], 52.6 µM.
On to `C=C1[C@@H](O)[C@@]2(O)OC[C@]34[C@H]2[C@@]2(C)[C@H](O)C(=O)C=C(C)[C@@H]2C[C@H]3OC(=O)[C@H](O)[C@@]14O` [EURYCOMANONE], for which the values for the Activity (in data set [1]; in the data set with HCT-8) were 57.93% and 72.16%, respectively. The IC50 is 4.47 µM in data set [7]; 15 µM and 6.11 µg/mL in the data set with SARS-CoV-2 [9]. In addition, the CC50 at 96 h in data set [2] came to 59.2 µM. The selectivity ratio in data set [8] is 13.2; in data set [10] it was above 6.68. Further, the CC50 at 48 h was above 100 µM in data set [3], 88.1 µM in [4], above 100 µM in data set [5] and above 100 µM in [6].
For `CC1=CC(=O)[C@@H](O)[C@]2(C)[C@H]3[C@]4(O)OC[C@@]35[C@@H](C[C@@H]12)OC(=O)[C@H](O)[C@@]5(O)[C@](C)(O)[C@H]4O`, the results for the Activity (in data set [1]; in the data set on HCT-8) were 93.71% and 70.13%, respectively. Besides, the IC50 in [7] was 0.25 µM; in the data set with SARS-CoV-2 [9], 4.84 µM and 1.69 µg/mL. Moreover, the CC50 at 96 h in [2] stood at 48.7 µM. Besides, the selectivity ratio is 195 in [8] and above 20.7 in [10]. The CC50 at 48 h in data set [3] is above 100 µM; in data set [4], above 100 µM; in [5], 54.3 µM; in data set [6] it was above 100 µM.
Compound `COC(=O)[C@@]12OC[C@]34[C@H]([C@@H](O)[C@@H]1O)[C@@]1(C)CC(=O)C(O)=C(C)[C@@H]1C[C@H]3OC(=O)[C@H](OC(=O)C=C(C)C)[C@@H]24` registered an IC50 in the data set with SARS-CoV-2 [11] of 0.049 µM.
Take `C=C1CC[C@@H]2[C@](C)(CO)[C@H](O)CC[C@@]2(C)[C@@H]1C/C=C1/C(=O)OC[C@H]1O` [ANDROGRAPHOLIDE]: the results for the Activity (in data set [1]; with HCT-8) were 60.4% and 93.47%, respectively.
For the compound `COc1ccc2c3ccnc4ccc(=O)n(c2c1)c43`, the figures for the Activity (in data set [1]; with HCT-8) were below 20% and 33.49%, respectively. In [2], the CC50 at 96 h was 21.1 µM. The CC50 at 48 h in data set [3], in [4], in [5] and in data set [6] was above 100 µM each time.
Take `CC1=CC(=O)[C@@H](O)[C@]2(C)[C@H]3[C@]4(O)OC[C@@]35[C@@H](C[C@@H]12)OC(=O)[C@H](O)[C@@]5(O)[C@]1(CO1)[C@H]4O`: the figures for the Activity (in data set [1]; in the data set with HCT-8) were 61.73% and 100.88%, respectively. Besides, the IC50 in data set [7] was 5.88 µM; with SARS-CoV-2 [9], 9.39 µM and 3.98 µg/mL. For the same compound, the CC50 at 96 h in data set [2] is above 100 µM. Moreover, the selectivity ratio was above 17 in data set [8] and above 10.7 in data set [10]. The half-maximal cytotoxic concentration (CC50) at 48 h in data set [3], in data set [4], in data set [5] and in data set [6] was above 100 µM in each case.
In the data set on SARS-CoV-2 [11], `COC(=O)[C@@]12OC[C@]34[C@H]([C@@H](O)[C@@H]1O)[C@@]1(C)CC(=O)C(O)=C(C)[C@@H]1C[C@H]3OC(=O)[C@H](OC(=O)CC(C)C)[C@@H]24` [BRUCEINE A] yielded an IC50 of 0.011 µM.
In the case of `CC1=CC(=O)[C@@H](O)[C@]2(C)C3[C@@H](O)[C@@H]4OC(=O)[C@@H]([C@H]4C)[C@]3(C)C(=O)C[C@@H]12` (some centres undefined), the Activity in [1] amounted to 90.27%; with HCT-8 it was 71.14%. Moreover, the 50% inhibitory concentration (IC50) in [7] was 0.37 µM; in the data set with SARS-CoV-2 [9], 510 nM and 0.18 µg/mL. The cytotoxic concentration (CC50) at 96 h in data set [2] was found to be 58.9 µM. Besides, the results for the selectivity ratio in data set [8] and in data set [10] were 159 and 112, respectively. Besides, the CC50 at 48 h is 57.1 µM in data set [3], 41.9 µM in data set [4], 31.2 µM in data set [5] and above 100 µM in [6].
Consider `O=c1ccc2nccc3c4ccc(O)cc4n1c23`, for which the Activity is recorded as below 20% in [1] and 49.3% in the data set with HCT-8. In data set [2], the CC50 at 96 h stood at 60.9 µM. Also, the CC50 at 48 h in data set [3], in data set [4], in [5] and in data set [6] was above 100 µM in each case.
With `CC1=CC(=O)[C@@H](O)[C@]2(C)[C@H]3[C@]4(O)OC[C@@]35[C@@H](C[C@@H]12)OC(=O)C[C@H]5[C@](C)(O)[C@H]4O`, the Activity in data set [1] is recorded as 84.54%; in the data set with HCT-8 it was 56.66%. Besides, the IC50 in data set [7] was 0.32 µM; in the data set on SARS-CoV-2 [9], 430 nM and 0.16 µg/mL. The CC50 at 96 h in data set [2] is 6.65 µM. Besides, the selectivity ratio in data set [8] was found to be 20.8; in data set [10], 61. For the same compound, the CC50 at 48 h in data set [3] was determined as 26.2 µM; in data set [4], 98.7 µM; in data set [5], 9.99 µM; in [6], 86.7 µM.
For `O=C(O)CCc1nccc2c1[nH]c1ccccc12`, the Activity in data set [1] was below 20%; with HCT-8 it was 108.05%. Further, in data set [2], the 50% cytotoxic concentration (CC50) at 96 h is above 100 µM. Further, the CC50 at 48 h in data set [3], in [4], in [5] and in data set [6] was above 100 µM in each case.
